Assay results taken from patent US20070010671A1, “Novel quinazoline derivatives and methods of treatment related to the use thereof” (priority 2003, published 2007).

target: MCH receptor (Homo sapiens, UniProt Q99705); test: High throughput functional screening FLIPR/FDSS6000: inhibition of MCH-evoked intracellular Ca2+ changes; type: cell-based; details: class by percent of control at 10^-7 M or IC50
How it was run: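 Antagonism is measured as inhibition of the intracellular calcium rise triggered by 50 nM MCH in cells bearing a constitutively active, non-endogenous form of the receptor. Cells are dye-loaded with Fluo4-AM and exposed to compound for 3 min at 37° C before agonist addition.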

SMILES	class
CN(C)c1nc(N[C@H]2CC[C@@H](CNC(=S)NCCC3=CCCCC3)CC2)nc2ccccc12 [compound 779]	3 (Class 3: The value of percent of control at 10^−7 M was more than 60% or the value of IC50 was more than 200 nM.)
Cc1cccc(NC(=S)NC[C@H]2CC[C@@H](Nc3nc(N(C)C)c4ccccc4n3)CC2)c1C [compound 780]	3 (Class 3: The value of percent of control at 10^−7 M was more than 60% or the value of IC50 was more than 200 nM.)
CN(C)c1nc(N[C@H]2CC[C@@H](CNC(=S)Nc3c(F)cc(Br)cc3Br)CC2)nc2ccccc12 [compound 781, N-(2,4-dibromo-6-fluorophenyl)-N′-[(cis-4-{[4-(dimethylamino)quinazolin-2-yl]amino}cyclohexyl)methyl]thiourea]	2 (Class 2: The value of percent of control at 10^−7 M was from 40% to 60% or the value of IC50 was from 50 nM to 200 nM.)
Cc1cc(Cl)cc(Cl)c1NC(=S)NC[C@H]1CC[C@@H](Nc2nc(N(C)C)c3ccccc3n2)CC1 [compound 782, N-(2,4-dichloro-6-methylphenyl)-N′-[(cis-4-{[4-(dimethylamino)quinazolin-2-yl]amino}cyclohexyl)methyl]thiourea]	2 (Class 2: The value of percent of control at 10^−7 M was from 40% to 60% or the value of IC50 was from 50 nM to 200 nM.)
Cc1ccc(C)c(NC(=S)NC[C@H]2CC[C@@H](Nc3nc(N(C)C)c4ccccc4n3)CC2)c1 [compound 783, N-[(cis-4-{[4-(dimethylamino)quinazolin-2-yl]amino}cyclohexyl)methyl]-N′-(2,5-dimethylphenyl)thiourea]	2 (Class 2: The value of percent of control at 10^−7 M was from 40% to 60% or the value of IC50 was from 50 nM to 200 nM.)
CC(C)c1ccc(NC(=S)NC[C@H]2CC[C@@H](Nc3nc(N(C)C)c4ccccc4n3)CC2)c(Br)c1 [compound 784]	3 (Class 3: The value of percent of control at 10^−7 M was more than 60% or the value of IC50 was more than 200 nM.)
CN(C)c1nc(N[C@H]2CC[C@@H](CNC(=S)Nc3cc(F)ccc3Br)CC2)nc2ccccc12 [compound 785]	3 (Class 3: The value of percent of control at 10^−7 M was more than 60% or the value of IC50 was more than 200 nM.)
CCOc1ccccc1NC(=S)NC[C@H]1CC[C@@H](Nc2nc(N(C)C)c3ccccc3n2)CC1 [compound 786, N-[(cis-4-{[4-(dimethylamino)quinazolin-2-yl]amino}cyclohexyl)methyl]-N′-(2-ethoxyphenyl)thiourea]	2 (Class 2: The value of percent of control at 10^−7 M was from 40% to 60% or the value of IC50 was from 50 nM to 200 nM.)
Cc1cccc(C(C)C)c1NC(=S)NC[C@H]1CC[C@@H](Nc2nc(N(C)C)c3ccccc3n2)CC1 [compound 787]	1 (Class 1: The value of percent of control at 10^−7 M was less than 40% or the value of IC50 was less than 50 nM.)
COc1ccccc1CNC(=S)NC[C@H]1CC[C@@H](Nc2nc(N(C)C)c3ccccc3n2)CC1 [compound 788]	3 (Class 3: The value of percent of control at 10^−7 M was more than 60% or the value of IC50 was more than 200 nM.)
CN(C)c1nc(N[C@H]2CC[C@@H](CNC(=S)Nc3ccc4c(c3)OCCO4)CC2)nc2ccccc12 [compound 789]	3 (Class 3: The value of percent of control at 10^−7 M was more than 60% or the value of IC50 was more than 200 nM.)
Cc1ccc(NC(=S)NC[C@H]2CC[C@@H](Nc3nc(N(C)C)c4ccccc4n3)CC2)cc1C [compound 790]	3 (Class 3: The value of percent of control at 10^−7 M was more than 60% or the value of IC50 was more than 200 nM.)
CN(C)c1nc(N[C@H]2CC[C@@H](CNC(=S)Nc3ccc4c(c3)OCO4)CC2)nc2ccccc12 [compound 791]	3 (Class 3: The value of percent of control at 10^−7 M was more than 60% or the value of IC50 was more than 200 nM.)
Cc1c(Cl)cccc1NC(=S)NC[C@H]1CC[C@@H](Nc2nc(N(C)C)c3ccccc3n2)CC1 [compound 792]	3 (Class 3: The value of percent of control at 10^−7 M was more than 60% or the value of IC50 was more than 200 nM.)
CN(C)c1nc(N[C@H]2CC[C@@H](CNC(=S)Nc3ccc(Br)cc3OC(F)(F)F)CC2)nc2ccccc12 [compound 793]	2 (Class 2: The value of percent of control at 10^−7 M was from 40% to 60% or the value of IC50 was from 50 nM to 200 nM.)
COc1cc(NC(=S)NC[C@H]2CC[C@@H](Nc3nc(N(C)C)c4ccccc4n3)CC2)c(OC)cc1Cl [compound 794]	3 (Class 3: The value of percent of control at 10^−7 M was more than 60% or the value of IC50 was more than 200 nM.)
CN(C)c1nc(N[C@H]2CC[C@@H](CNC(=S)NCCCCc3ccccc3)CC2)nc2ccccc12 [compound 795]	3 (Class 3: The value of percent of control at 10^−7 M was more than 60% or the value of IC50 was more than 200 nM.)
CN(C)c1nc(N[C@H]2CC[C@@H](CNC(=S)Nc3ccc(C(C)(C)C)cc3)CC2)nc2ccccc12 [compound 796]	3 (Class 3: The value of percent of control at 10^−7 M was more than 60% or the value of IC50 was more than 200 nM.)
CN(C)c1nc(N[C@H]2CC[C@@H](CNC(=S)Nc3cc(Cl)ccc3F)CC2)nc2ccccc12 [compound 797, N-(5-choloro-2-fluorophenyl)-N′-[(cis-4-{[4-(dimethylamino)-quinazolin-2-yl]amino}cyclohexyl)methyl]thiourea]	3 (Class 3: The value of percent of control at 10^−7 M was more than 60% or the value of IC50 was more than 200 nM.)

same assay, conditions: class by percent of control at 10^-7 M or by IC50; read-out: class

SMILES	IC50 [nM]
CN(C)c1nc(N[C@H]2CC[C@@H](CNC(=S)NCC3CC3)CC2)nc2ccccc12 [compound 800]	50 to 200
CCOC(=O)c1c(NC(=S)NC[C@H]2CC[C@@H](Nc3nc(N(C)C)c4ccccc4n3)CC2)sc2c1CCCC2 [compound 801, ethyl 2-[({[(cis-4-{[4-(dimethylamino)quinazolin-2-yl]amino}cyclohexyl)methyl]amino}carbonothioyl)amino]-4.5.6.7-tetrahydro-1-benzothiophene-3-carboxylate]	> 200
COC(=O)c1sccc1NC(=S)NC[C@H]1CC[C@@H](Nc2nc(N(C)C)c3ccccc3n2)CC1 [compound 802]	> 200
CN(C)c1nc(N[C@H]2CC[C@@H](CNC(=S)Nc3ccc(F)cc3Br)CC2)nc2ccccc12 [compound 803]	> 200
CN(C)c1nc(N[C@H]2CC[C@@H](CNC(=S)Nc3ccc(F)c(Cl)c3)CC2)nc2ccccc12 [compound 804]	> 200
CCCCc1ccc(NC(=S)NC[C@H]2CC[C@@H](Nc3nc(N(C)C)c4ccccc4n3)CC2)c(C)c1 [compound 805]	> 200
CN(C)c1ccc(NC(=S)NC[C@H]2CC[C@@H](Nc3nc(N(C)C)c4ccccc4n3)CC2)cc1 [compound 806]	> 200
CN(C)c1nc(N[C@H]2CC[C@@H](CNC(=S)NCCN3CCOCC3)CC2)nc2ccccc12 [compound 808]	> 200
CN(C)c1nc(N[C@H]2CC[C@@H](CNC(=S)Nc3cccnc3)CC2)nc2ccccc12 [compound 809]	> 200
CN(C)c1nc(N[C@H]2CC[C@@H](CNC(=S)NCCCN3CCOCC3)CC2)nc2ccccc12 [compound 810]	> 200
CCN(CC)c1ccc(NC(=S)NC[C@H]2CC[C@@H](Nc3nc(N(C)C)c4ccccc4n3)CC2)cc1 [compound 811]	> 200
CN(C)c1nc(N[C@H]2CC[C@@H](CNC(=S)Nc3ccc(/N=N/c4ccccc4)cc3)CC2)nc2ccccc12 [compound 812]	> 200
CN(C)c1nc(N[C@H]2CC[C@@H](CNC(=S)NCCN3CCCCC3)CC2)nc2ccccc12 [compound 813]	> 200
CN(C)c1nc(N[C@H]2CC[C@@H](CNC(=S)Nc3ccc(-n4cccn4)cc3)CC2)nc2ccccc12 [compound 814]	> 200
CN(C)c1nc(N[C@H]2CC[C@@H](CNC(=S)Nc3cccc4nsnc34)CC2)nc2ccccc12 [compound 815]	> 200
CN(C)c1nc(N[C@H]2CC[C@@H](CNC(=S)Nc3ccc4nsnc4c3)CC2)nc2ccccc12 [compound 816]	> 200
Cc1noc(C)c1NC(=S)NC[C@H]1CC[C@@H](Nc2nc(N(C)C)c3ccccc3n2)CC1 [compound 817]	> 200
CN(C)c1nc(N[C@H]2CC[C@@H](CNC(=S)Nc3ccc(-c4cnco4)cc3)CC2)nc2ccccc12 [compound 818]	> 200
Cc1onc(-c2ccccc2)c1NC(=S)NC[C@H]1CC[C@@H](Nc2nc(N(C)C)c3ccccc3n2)CC1 [compound 819]	50 to 200
CN(C)c1nc(N[C@H]2CC[C@@H](CNC(=S)Nc3ccc(N4CCOCC4)nc3)CC2)nc2ccccc12 [compound 820]	> 200
CN(C)c1nc(N[C@H]2CC[C@@H](CNC(=S)Nc3ccc(Oc4ccccc4)nc3)CC2)nc2ccccc12 [compound 821]	> 200
CN(C)c1nc(N[C@H]2CC[C@@H](NC(=O)Nc3ccc(F)cc3[N+](=O)[O-])CC2)nc2ccccc12 [compound 822, N-(cis-4-{[4-(dimethylamino)quinazolin-2-yl]amino}cyclohexyl)-N′-(4-fluoro-2-nitrophenyl)urea]	50 to 200
CN(C)c1nc(N[C@H]2CC[C@@H](NC(=O)Nc3ccc(F)cc3C(F)(F)F)CC2)nc2ccccc12 [compound 823]	> 200
CN(C)c1nc(N[C@H]2CC[C@@H](NC(=O)NCc3ccc(F)cc3)CC2)nc2ccccc12 [compound 824, N-(cis-4-{[4-(dimethylamino)quinazolin-2-yl]amino}cyclohexyl)-N′-(4-fluorobenzyl)urea]	< 50
CCCCCCCOc1ccc(NC(=O)N[C@H]2CC[C@@H](Nc3nc(N(C)C)c4ccccc4n3)CC2)cc1 [compound 825]	> 200
CN(C)c1nc(N[C@H]2CC[C@@H](NC(=O)Nc3ccc(I)cc3)CC2)nc2ccccc12 [compound 826, N-(cis-4-{[4-(dimethylamino)quinazolin-2-yl]amino}cyclohexyl)-N′-(4-iodophenyl)urea]	50 to 200
